Measured values from PubChem BioAssay (NCI).
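Results reflect a 48-hour exposure of cells in 96-well plates to compound at five concentrations. The concentration for full growth arrest is given as TGI.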

How the values were obtained:
Experiment in all cases: growth of human tumour cells (NCI), 48 h
[1] = test system: MALME-3M melanoma
[2] = test system: K-562 leukemia
[3] = test system: SK-MEL-5 melanoma
[4] = test system: ACHN renal
[5] = test system: SF-268 CNS
[6] = test system: U251 CNS
[7] = test system: SNB-19 CNS
[8] = test system: SK-MEL-2 melanoma
[9] = test system: HL-60(TB) leukemia
[10] = test system: CCRF-CEM leukemia
[11] = test system: COLO 205 colon
[12] = test system: HCT-15 colon
[13] = test system: NCI-H23 lung
[14] = test system: PC-3 prostate
[15] = test system: EKVX NSCLC
[16] = test system: LOX IMVI melanoma
[17] = test system: NCI-H226 lung
[18] = test system: NCI-H460 lung
[19] = test system: RPMI-8226 leukemia
[20] = test system: MDA-N
[21] = test system: CAKI-1 renal
[22] = test system: SF-295 CNS
[23] = test system: MDA-MB-435
[24] = test system: BT-549 breast
[25] = test system: UACC-62 melanoma
[26] = test system: OVCAR-5 ovarian
[27] = test system: SK-MEL-28 melanoma
[28] = test system: MCF7 breast
[29] = test system: OVCAR-3 ovarian
[30] = test system: A549 NSCLC
[31] = test system: M14 melanoma
[32] = test system: A498 renal
[33] = test system: OVCAR-4 ovarian
[34] = test system: HOP-62 NSCLC
[35] = test system: HS 578T breast
[36] = test system: UACC-257 melanoma
[37] = test system: SNB-75 CNS
[38] = test system: MOLT-4 leukemia
[39] = test system: TK-10 renal
[40] = test system: HCT-116 colon
[41] = test system: HCC-2998 colon
[42] = test system: MDA-MB-231 breast
[43] = test system: HT29 colon
[44] = test system: SR leukemia
[45] = test system: SF-539 CNS
[46] = test system: T-47D breast
[47] = test system: SW-620 colon
[48] = test system: KM12 colon
[49] = test system: NCI-H522 lung
[50] = test system: SK-OV-3 ovarian
[51] = test system: SN12C renal
[52] = test system: DU-145 prostate
[53] = test system: 786-0 renal
[54] = test system: OVCAR-8 ovarian
[55] = test system: UO-31 renal
[56] = test system: IGROV1 ovarian
[57] = test system: NCI/ADR-RES ovarian
[58] = test system: RXF 393 renal
[59] = test system: HOP-92 NSCLC

## Cc1cccc(C)c1NC(=O)/C=C/c1ccccc1
[1]
  TGI: > 100 µM
[2]
  TGI: > 100 µM
[3]
  TGI: > 100 µM
[4]
  TGI: > 100 µM
[5]
  TGI: > 100 µM
[6]
  TGI: > 100 µM
[7]
  TGI: > 100 µM
[8]
  TGI: > 100 µM
[9]
  TGI: > 100 µM
[10]
  TGI: > 100 µM
[11]
  TGI: > 100 µM
[12]
  TGI: > 100 µM
[13]
  TGI: > 100 µM
[14]
  TGI: > 100 µM
[15]
  TGI: > 100 µM
[16]
  TGI: > 100 µM
[17]
  TGI: > 100 µM
[18]
  TGI: > 100 µM
[19]
  TGI: > 100 µM
[20]
  TGI: > 100 µM
[21]
  TGI: > 100 µM
[22]
  TGI: > 100 µM
[23]
  TGI: > 100 µM
[24]
  TGI: > 100 µM
[25]
  TGI: > 100 µM
[26]
  TGI: > 100 µM
[27]
  TGI: > 100 µM
[28]
  TGI: > 100 µM
[29]
  TGI: > 100 µM
[30]
  TGI: > 100 µM
[31]
  TGI: > 100 µM
[32]
  TGI: > 100 µM
[33]
  TGI: > 100 µM
[34]
  TGI: > 100 µM
[35]
  TGI: > 100 µM
[36]
  TGI: > 100 µM
[37]
  TGI: > 100 µM
[38]
  TGI: > 100 µM
[39]
  TGI: > 100 µM
[40]
  TGI: > 100 µM
[41]
  TGI: > 100 µM
[42]
  TGI: > 100 µM
[43]
  TGI: > 100 µM
[44]
  TGI: > 100 µM
[45]
  TGI: > 100 µM
[46]
  TGI: > 100 µM
[47]
  TGI: > 100 µM
[48]
  TGI: > 100 µM
[49]
  TGI: > 100 µM
[50]
  TGI: > 100 µM
[51]
  TGI: > 100 µM
[52]
  TGI: > 100 µM
[53]
  TGI: > 100 µM
[54]
  TGI: > 100 µM

## CN1C(=O)C(O)CC1c1ccc(C(F)(F)F)cc1 (stereo not given)
[1]
  TGI: > 100 µM
[2]
  TGI: > 100 µM
[55]
  TGI: > 100 µM
[56]
  TGI: > 100 µM
[3]
  TGI: > 100 µM
[4]
  TGI: > 100 µM
[5]
  TGI: > 100 µM
[6]
  TGI: > 100 µM
[7]
  TGI: > 100 µM
[8]
  TGI: > 100 µM
[9]
  TGI: > 100 µM
[10]
  TGI: > 100 µM
[11]
  TGI: > 100 µM
[12]
  TGI: > 100 µM
[57]
  TGI: > 100 µM
[13]
  TGI: > 100 µM
[14]
  TGI: > 100 µM
[15]
  TGI: > 100 µM
[16]
  TGI: > 100 µM
[17]
  TGI: > 100 µM
[18]
  TGI: > 100 µM
[19]
  TGI: > 100 µM
[20]
  TGI: > 100 µM
[21]
  TGI: > 100 µM
[22]
  TGI: > 100 µM
[23]
  TGI: > 100 µM
[58]
  TGI: > 100 µM
[24]
  TGI: > 100 µM
[25]
  TGI: > 100 µM
[26]
  TGI: > 100 µM
[27]
  TGI: > 100 µM
[28]
  TGI: > 100 µM
[29]
  TGI: > 100 µM
[30]
  TGI: > 100 µM
[31]
  TGI: > 100 µM
[59]
  TGI: > 100 µM
[32]
  TGI: > 100 µM
[33]
  TGI: > 100 µM
[34]
  TGI: > 100 µM
[35]
  TGI: > 100 µM
[36]
  TGI: > 100 µM
[37]
  TGI: > 100 µM
[38]
  TGI: > 100 µM
[39]
  TGI: > 100 µM
[40]
  TGI: > 100 µM
[41]
  TGI: > 100 µM
[42]
  TGI: > 100 µM
[43]
  TGI: > 100 µM
[45]
  TGI: > 100 µM
[46]
  TGI: > 100 µM
[47]
  TGI: > 100 µM
[48]
  TGI: > 100 µM
[49]
  TGI: > 100 µM
[50]
  TGI: > 100 µM
[51]
  TGI: > 100 µM
[52]
  TGI: > 100 µM
[53]
  TGI: > 100 µM
[54]
  TGI: > 100 µM

## COc1ccc2c(N=[N+]=[N-])c(-c3ccccc3)c(=O)oc2c1
[1]
  TGI: > 100 µM
[2]
  TGI: > 100 µM
[56]
  TGI: > 100 µM
[3]
  TGI: 77.3 µM
[4]
  TGI: > 100 µM
[5]
  TGI: > 100 µM
[9]
  TGI: 60.3 µM
[10]
  TGI: > 100 µM
[11]
  TGI: > 100 µM
[12]
  TGI: > 100 µM
[13]
  TGI: > 100 µM
[14]
  TGI: > 100 µM
[15]
  TGI: > 100 µM
[16]
  TGI: > 100 µM
[18]
  TGI: > 100 µM
[19]
  TGI: > 100 µM
[20]
  TGI: > 100 µM
[21]
  TGI: > 100 µM
[22]
  TGI: > 100 µM
[23]
  TGI: > 100 µM
[24]
  TGI: > 100 µM
[25]
  TGI: > 100 µM
[27]
  TGI: > 100 µM
[28]
  TGI: > 100 µM
[30]
  TGI: > 100 µM
[31]
  TGI: > 100 µM
[32]
  TGI: > 100 µM
[34]
  TGI: > 100 µM
[35]
  TGI: > 100 µM
[36]
  TGI: 85.6 µM
[37]
  TGI: > 100 µM
[38]
  TGI: 73.1 µM
[39]
  TGI: > 100 µM
[40]
  TGI: > 100 µM
[41]
  TGI: > 100 µM
[42]
  TGI: > 100 µM
[43]
  TGI: > 100 µM
[44]
  TGI: 67.1 µM
[45]
  TGI: > 100 µM
[46]
  TGI: > 100 µM
[47]
  TGI: > 100 µM
[48]
  TGI: > 100 µM
[49]
  TGI: > 100 µM
[50]
  TGI: > 100 µM
[51]
  TGI: > 100 µM
[52]
  TGI: > 100 µM
[53]
  TGI: > 100 µM
[54]
  TGI: > 100 µM
